# Measurements taken from patent publication US10125118B2, “Heteroaryl compounds and their use as therapeutic drugs” (Dong-A Socio Holdings Co., Ltd., priority 2015, dated 2018).
# Legend:
# [1] = tested on: CD8-MerTK in Ba/F3-CDM cells; assay: In cell MER kinase assay, Ba/F3-CDM cell proliferation without IL-3 (Celltiter-Glo); assay type: cell-based, murine; details: 48 hours compound treatment, read-out: Cell growth inhibition (GI50)
# Protocol: To establish an in cell kinase assay for MerTK kinase, the IL-3 dependent Ba/F3 cells of murine lymphoid origin was transfected with CD8-MerTK. […] For a routine cellular assay, Ba/F3-CDM cells were seeded at 2,000 cells per well in 384-well cell culture plate containing DMEM/10% FBS culture media and incubated for 24 hours before addition of compounds pre-diluted in culture media. Following compound treatment, cells were further incubated for 48 hours and the proliferation was measured. To discriminate a Ba/F3 growth inhibition by a specific inhibition of MerTK kinase following compound treatment vs growth inhibition due to a non-specific unintended cytotoxicity of compounds, we routinely carried out control sets of Ba/F3 cells in parallel that grown in IL3-supplemented growth media. In the presence of IL-3, the proliferation of Ba/F3 is no longer dependent on the MerTK activity. Cell growth and proliferation was measured with Celltiter-Glo™ system (Promega, USA) according to the manufacturer's instruction. The half-maximal growth inhibitory concentration (GI50) value was calculated with Prism6.0 software (GraphPad, USA).
# [2] = molecular target: human c-MER catalytic domain (Homo sapiens (Human), UniProt Q12866); assay: LanthaScreen TR-FRET kinase assay, c-MER; details: read-out: Mer TK inhibition (IC50); Biochemical IC50, TR-FRET, 10 uM ATP
# Chain of human c-MER catalytic domain (Q12866 587-858): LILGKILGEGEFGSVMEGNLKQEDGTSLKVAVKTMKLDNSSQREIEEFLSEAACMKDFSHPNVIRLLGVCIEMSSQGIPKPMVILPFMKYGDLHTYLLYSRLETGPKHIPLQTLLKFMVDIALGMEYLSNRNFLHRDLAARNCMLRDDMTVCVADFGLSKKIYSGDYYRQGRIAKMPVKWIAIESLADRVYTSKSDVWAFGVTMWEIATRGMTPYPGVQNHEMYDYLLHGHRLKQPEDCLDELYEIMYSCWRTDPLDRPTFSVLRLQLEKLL
SMILES,GI50 [1] [nM],IC50 [2] [nM]
"CC(c1ccc(-c2ccc(CO[C@H]3CCC[C@@H]3NC(=O)c3cc(-c4ccc(F)nc4)cnc3N)cc2)cc1)N1CCN(C)CC1 (stereo in doubt) [Example 223, 6-amino-6′-fluoro-N-((1S,2S)-2-((4′-((R)-1-(4-methylpiperazin-1-yl)ethyl)-[1,1′-biphenyl]-4-yl)methoxy)cyclopentyl)-[3,3′-bipyridine]-5-carboxamide]",100 to 500,< 10
"Cc1cccc(C)c1CO[C@H]1CCC[C@@H]1NC(=O)c1cc(-c2cnn(C)c2)cnc1N [Example 15, 2-amino-N-((1S,2S)-2-((2,6-dimethylbenzyl)oxy)cyclopentyl)-5-(1-methyl-1H-pyrazol-4-yl)nicotinamide]",> 1000,> 1000
"CCc1cc(CO[C@H]2CCC[C@@H]2NC(=O)c2cc(-c3cnn(C)c3)cnc2N)ccc1C [Example 21, 2-amino-N-((1S,2S)-2-((3-ethyl-4-methylbenzyl)oxy)cyclopentyl)-5-(1-methyl-1H-pyrazol-4-yl)nicotinamide]",> 1000,< 10
"CN1CCN(Cc2ccc(-c3ccc(OC[C@H]4CCC[C@@H]4NC(=O)c4cc(-c5cnn(C)c5)cnc4N)cc3)cc2)CC1 [Example 86, 2-amino-5-(1-methyl-1H-pyrazol-4-yl)-N-((1S,2S)-2-(((4′-((4-methylpiperazin-1-yl)methyl)-[1,1′-biphenyl]-4-yl)oxy)methyl)cyclopentyl)nicotinamide]",100 to 500,< 10
"CNc1ccc(-c2ccc(CO[C@H]3CCC[C@@H]3NC(=O)c3cc(-c4cnn(C)c4)cnc3N)cc2)cc1 [Example 136, 2-amino-5-(1-methyl-1H-pyrazol-4-yl)-N-((1S,2S)-2-((4′-(methylamino)-[1,1′-biphenyl]-4-yl)methoxy)cyclopentyl)nicotinamide]",100 to 500,< 10
"CN(C)c1ccc(-c2ccc(CO[C@H]3CCC[C@@H]3NC(=O)c3cc(-c4cnn(C)c4)cnc3N)cc2)cc1 [Example 137, 2-amino-N-((1S,2S)-2-((4′-(dimethylamino)-[1,1′-biphenyl]-4-yl)methoxy)cyclopentyl)-5-(1-methyl-1H-pyrazol-4-yl)nicotinamide]",< 100,< 10
"Cn1cc(-c2cnc(N)c(C(=O)N[C@H]3CCC[C@@H]3OCc3ccc(-c4ccc(CO)cc4)cc3)c2)cn1 [Example 142, 2-amino-N-((1S,2S)-2-((4′-(hydroxymethyl)-[1,1′-biphenyl]-4-yl)methoxy)cyclopentyl)-5-(1-methyl-1H-pyrazol-4-yl)nicotinamide]",100 to 500,< 10
"Cn1cc(-c2cnc(N)c(C(=O)N[C@H]3CCC[C@@H]3OCc3ccc(-c4ccc(CCN)cc4)cc3)c2)cn1 [Example 145, 2-amino-N-((1S,2S)-2-((4′-(2-aminoethyl)-[1,1′-biphenyl]-4-yl)methoxy)cyclopentyl)-5-(1-methyl-1H-pyrazol-4-yl)nicotinamide]",> 1000,< 10
"CN1CCN(c2ccc(-c3ccc(CO[C@H]4CCC[C@@H]4NC(=O)c4cc(-c5cnn(C)c5)cnc4N)cc3)cc2)CC1 [Example 146, 2-amino-5-(1-methyl-1H-pyrazol-4-yl)-N-((1S,2S)-2-((4′-(4-methylpiperazin-1-yl)-[1,1′-biphenyl]-4-yl)methoxy)cyclopentyl)nicotinamide]",< 100,< 10
"Cn1cc(-c2cnc(N)c(C(=O)N[C@H]3CCC[C@@H]3OCc3ccc(-c4ccc(N5CCNCC5)nc4)cc3)c2)cn1 [Example 147, 2-amino-5-(1-methyl-1H-pyrazol-4-yl)-N-((1S,2S)-2-((4-(6-(piperazin-1-yl)pyridin-3-yl)benzyl)oxy)cyclopentyl)nicotinamide]",100 to 500,< 10
"CN1CCN(c2ccc(-c3ccc(CO[C@H]4CCC[C@@H]4NC(=O)c4cc(-c5cnn(C)c5)cnc4N)cc3)cn2)CC1 [Example 148, 2-amino-5-(1-methyl-1H-pyrazol-4-yl)-N-((1S,2S)-2-((4-(6-(4-methylpiperazin-1-yl)pyridin-3-yl)benzyl)oxy)cyclopentyl)nicotinamide]",> 1000,< 10
"CCc1ccc(-c2ccc(CO[C@H]3CCC[C@@H]3NC(=O)c3cc(-c4cnn(C)c4)cnc3N)cc2)cc1 [Example 153, 2-amino-N-((1S,2S)-2-((4′-ethyl-[1,1′-biphenyl]-4-yl)-methoxy)cyclopentyl)-5-(1-methyl-1H-pyrazol-4-yl)nicotinamide]",500 to 1000,< 10
"CN1CCN(Cc2ccc(-c3ccc(CO[C@H]4CCC[C@@H]4NC(=O)c4cc(-c5cnn(C)c5)cnc4N)c(F)c3)cc2)CC1 [Example 156, 2-amino-N-((1S,2S)-2-((3-fluoro-4′-((4-methylpiperazin-1-yl)-methyl)-[1,1′-biphenyl]-4-yl)methoxy)cyclopentyl)-5-(1-methyl-1H-pyrazol-4-yl)-nicotinamide]",< 100,< 10
"C[C@@H]1CN(Cc2ccc(-c3ccc(CO[C@H]4CCC[C@@H]4NC(=O)c4cc(-c5cnn(C)c5)cnc4N)c(F)c3)cc2)C[C@H](C)N1C [Example 157, 2-amino-N-((1S,2S)-2-((3-fluoro-4′-((cis-3,4,5-trimethylpiperazin-1-yl)methyl)-[1,1′-biphenyl]-4-yl)methoxy)cyclopentyl)-5-(1-methyl-1H-pyrazol-4-yl)-nicotinamide]",100 to 500,< 10
"CN1CCN(Cc2ccc(-c3ccc(CO[C@H]4CCC[C@@H]4NC(=O)c4cc(-c5cnn(C)c5)cnc4N)cc3Cl)cc2)CC1 [Example 159, 2-amino-N-((1S,2S)-2-((2-chloro-4′-((4-methylpiperazin-1-yl)-methyl)-[1,1′-biphenyl]-4-yl)methoxy)cyclopentyl)-5-(1-methyl-1H-pyrazol-4-yl)-nicotinamide]",100 to 500,< 10
"CN1CCN(CCc2ccc(-c3ccc(CO[C@H]4CCC[C@@H]4NC(=O)c4cc(-c5cnn(C)c5)cnc4N)cc3)cc2)CC1 [Example 161, 2-amino-5-(1-methyl-1H-pyrazol-4-yl)-N-((1S,2S)-2-((4′-(2-(4-methylpiperazin-1-yl)ethyl)-[1,1′-biphenyl]-4-yl)methoxy)cyclopentyl)nicotinamide]",< 100,< 10
"Cn1cc(-c2cnc(N)c(C(=O)N[C@H]3CCC[C@@H]3OCc3ccc(-c4ccc(CN5CCNCC5)cc4)cc3)c2)cn1 [Example 177, 2-amino-5-(1-methyl-1H-pyrazol-4-yl)-N-((1S,2S)-2-((4′-(piperazin-1-ylmethyl)-[1,1′-biphenyl]-4-yl)methoxy)cyclopentyl)nicotinamide]",100 to 500,< 10
"Cn1cc(-c2cnc(N)c(C(=O)N[C@H]3CCC[C@@H]3OCc3ccc(-c4ccc(CN5CCC(N6CCCC6)CC5)cc4)cc3)c2)cn1 [Example 179, 2-amino-5-(1-methyl-1H-pyrazol-4-yl)-N-((1S,2S)-2-((4′-((4-(pyrrolidin-1-yl)piperidin-1-yl)methyl)-[1,1′-biphenyl]-4-yl)methoxy)cyclopentyl)-nicotinamide]",100 to 500,< 10
"Cn1cc(-c2cnc(N)c(C(=O)N[C@H]3CCC[C@@H]3OCc3ccc(-c4ccc(CN5CCC(O)CC5)cc4)cc3)c2)cn1 [Example 180, 2-amino-N-((1S,2S)-2-((4′-((4-hydroxypiperidin-1-yl)methyl)-[1,1′-biphenyl]-4-yl)methoxy)cyclopentyl)-5-(1-methyl-1H-pyrazol-4-yl)nicotinamide]",> 1000,< 10
"Cn1cc(-c2cnc(N)c(C(=O)N[C@H]3CCC[C@@H]3OCc3ccc(-c4ccc(CN5CCN(CCO)CC5)cc4)cc3)c2)cn1 [Example 181, 2-amino-N-((1S,2S)-2-((4′-((4-(2-hydroxyethyl)piperazin-1-yl)-methyl)-[1,1′-biphenyl]-4-yl)methoxy)cyclopentyl)-5-(1-methyl-1H-pyrazol-4-yl)-nicotinamide]",< 100,< 10
"Cn1cc(-c2cnc(N)c(C(=O)N[C@H]3CCC[C@@H]3OCc3ccc(-c4ccc(CN5CCN(CC(C)(C)O)CC5)cc4)cc3)c2)cn1 [Example 182, 2-amino-N-((1S,2S)-2-((4′-((4-(2-hydroxy-2-methylpropyl)-piperazin-1-yl)methyl)-[1,1′-biphenyl]-4-yl)methoxy)cyclopentyl)-5-(1-methyl-1H-pyrazol-4-yl)nicotinamide]",< 100,< 10
"CCN1CCN(Cc2ccc(-c3ccc(CO[C@H]4CCC[C@@H]4NC(=O)c4cc(-c5cnn(C)c5)cnc4N)cc3)cc2)CC1 [Example 183, 2-amino-N-((1S,2S)-2-((4′-((4-ethylpiperazin-1-yl)methyl)-[1,1′-biphenyl]-4-yl)methoxy)cyclopentyl)-5-(1-methyl-1H-pyrazol-4-yl)nicotinamide]",< 100,< 10
"CN1CCN(Cc2ccc(-c3ccc(CO[C@H]4CCC[C@@H]4NC(=O)c4cc(-c5ccc(Cl)c(F)c5)cnc4N)cc3)cc2)CC1 [Example 373, 2-amino-5-(4-chloro-3-fluorophenyl)-N-((1S,2S)-2-((4′-((4-methylpiperazin-1-yl)methyl)-[1,1′-biphenyl]-4-yl)methoxy)cyclopentyl)nicotinamide]",100 to 500,
